Assay results reported in PMC7694328, “Synthesis and Glycosidase Inhibition Properties of Calix[8]arene-Based Iminosugar Click Clusters” (Pharmaceuticals, 2020).
Several values for one entry are separate records, joined by “and”; a condition that tells them apart may be missing. Equal values may be shown once. Read-outs that look alike come from different tables or passages of the source.

Key:
[1] = biological target: T1, Jack Bean α-mannosidase (JBα-man) (Canavalia ensiformis, UniProt C0HJB3); details: cited from earlier work; for rp/n: cyclopeptoid-based clusters
T1 construct: two LH heterodimers, each constituted by two distinct chains, L and H; purchased Sigma Aldrich
T1 sequence (C0HJB3 1-562 limits assumed): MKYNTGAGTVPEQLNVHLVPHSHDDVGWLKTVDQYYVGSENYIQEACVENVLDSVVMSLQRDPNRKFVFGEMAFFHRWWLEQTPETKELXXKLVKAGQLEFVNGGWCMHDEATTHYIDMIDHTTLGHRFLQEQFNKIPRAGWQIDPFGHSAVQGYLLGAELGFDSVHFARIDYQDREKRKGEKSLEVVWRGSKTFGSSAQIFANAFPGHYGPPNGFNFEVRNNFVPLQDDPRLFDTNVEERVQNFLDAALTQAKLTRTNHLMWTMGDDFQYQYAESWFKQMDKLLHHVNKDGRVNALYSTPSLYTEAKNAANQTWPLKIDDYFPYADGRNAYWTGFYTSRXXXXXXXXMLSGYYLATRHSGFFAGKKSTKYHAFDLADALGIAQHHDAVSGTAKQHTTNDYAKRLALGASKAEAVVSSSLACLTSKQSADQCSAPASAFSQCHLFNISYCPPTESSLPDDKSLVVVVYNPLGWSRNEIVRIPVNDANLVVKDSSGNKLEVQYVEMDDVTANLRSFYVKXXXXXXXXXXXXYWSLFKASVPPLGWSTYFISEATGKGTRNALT
T1 sequence (C0HJB3 563-981 limits assumed): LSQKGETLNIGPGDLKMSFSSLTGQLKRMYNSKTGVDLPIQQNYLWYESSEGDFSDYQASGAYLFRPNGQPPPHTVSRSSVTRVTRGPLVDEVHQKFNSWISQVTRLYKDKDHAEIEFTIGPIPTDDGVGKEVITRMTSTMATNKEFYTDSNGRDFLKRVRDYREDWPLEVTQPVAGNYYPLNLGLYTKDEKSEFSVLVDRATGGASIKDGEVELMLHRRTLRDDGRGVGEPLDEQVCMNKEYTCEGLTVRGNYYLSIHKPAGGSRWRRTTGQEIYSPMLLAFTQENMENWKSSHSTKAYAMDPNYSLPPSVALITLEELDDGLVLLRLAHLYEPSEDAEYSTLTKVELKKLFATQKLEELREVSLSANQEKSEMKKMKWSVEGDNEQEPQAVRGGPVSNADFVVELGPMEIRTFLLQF

[2] = biological target: T1, Jack Bean α-mannosidase (JBα-man); assay: Inhibition assay against Jack Bean α-mannosidase (hydrolysis of p-nitrophenyl-α-D-mannopyranoside); format: biochemical
Method: p-nitrophenyl-α-D-mannopyranoside and α-mannosidase (EC 3.2.1.24, from Jack Bean, Km = 2.0 mM pH 5.5) were purchased from Sigma Aldrich(St. Louis, MO, USA).
General procedure for Inhibition assay with basic quench: Inhibitory potencies were determined spectrophotometrically (Versamax 96-well plate spectrophotometer, Molecular Devices Corporation, Sunnyvale, CA, USA) measuring the residual hydrolytic activities of the mannosidase against p-nitrophenyl-α-D-mannopyranoside in the presence and absence of the inhibitor. All kinetics were performed at 25 °C and started by enzyme addition (0.015 U/mL) in a 100 µL assay medium (acetate buffer, 0.2 M, pH = 5) containing substrate (varying concentration from Km/8 to 2Km value) in presence or absence of various concentrations of inhibitor. After 40–50 min incubation, the reaction was quenched by addition of 1M Na2CO3 (100 µL). The absorbance of the resulting solution was determined at 405 nm. Ki values were determined in duplicate or triplicate, using the Dixon and Lineweaver–Burk graphical methods with Microsoft Excel 97-03, or using non-linear regression with GraphPad Prism 7 Software. As the inhibitors are only partially soluble in water, they were dissolved in DMSO for concentrated mother solutions and DMSO/buffer for diluted solutions with a final DMSO concentration under 4% in all wells. Previously, the stability of the enzymes in presence of various concentrations of DMSO was controlled and the enzyme activity was unaffected.
General procedure for inhibition assay measured continuously: The release of p-nitrophenol was measured continuously at 385 nm to determine initial velocities. […] Under these conditions, the p-nitrophenolate released led to optical densities linear with both reaction time and concentration of the enzyme. Ki values were determined in duplicate or quadruplate, using the Dixon graphical method. As the inhibitors are only partially soluble in water, they were dissolved in DMSO for concentrated mother solutions and DMSO/buffer for diluted solutions with a final DMSO concentration under 5% in all vials. […]

[3] = calix[4]arene cluster and its monovalent reference, read-out: Ki

Q: Which rp/n [1] does the source give for `O=C1CN(Cc2cn(CCCCCCCCCN3C[C@H](O)[C@@H](O)[C@H](O)[C@H]3CO)nn2)C(=O)CN(Cc2cn(CCCCCCCCCN3C[C@H](O)[C@@H](O)[C@H](O)[C@H]3CO)nn2)C(=O)CN(Cc2cn(CCCCCCCCCN3C[C@H](O)[C@@H](O)[C@H](O)[C@H]3CO)nn2)C(=O)CN(Cc2cn(CCCCCCCCCN3C[C@H](O)[C@@H](O)[C@H](O)[C@H]3CO)nn2)C(=O)CN(Cc2cn(CCCCCCCCCN3C[C@H](O)[C@@H](O)[C@H](O)[C@H]3CO)nn2)C(=O)CN1Cc1cn(CCCCCCCCCN2C[C@H](O)[C@@H](O)[C@H](O)[C@H]2CO)nn1` [Compound 1a] here?
A: 3 and ~ 3

Q: Which Ki ([1]; monovalent reference, C9 chain, read-out: Ki) does the source give for `CCCc1cn(CCCCCCCCCN2C[C@H](O)[C@@H](O)[C@H](O)[C@H]2CO)nn1` [Compound 4] here?
A: 188 µM

Q: Which results are given for `CC(C)(C)c1cc2c(OCc3cn(CCCN4C[C@H](O)[C@@H](O)[C@H](O)[C@H]4CO)nn3)c(c1)Cc1cc(C(C)(C)C)cc(c1OCc1cn(CCCN3C[C@H](O)[C@@H](O)[C@H](O)[C@H]3CO)nn1)Cc1cc(C(C)(C)C)cc(c1OCc1cn(CCCN3C[C@H](O)[C@@H](O)[C@H](O)[C@H]3CO)nn1)Cc1cc(C(C)(C)C)cc(c1OCc1cn(CCCN3C[C@H](O)[C@@H](O)[C@H](O)[C@H]3CO)nn1)C2` [Compound 2]?
A: Ki [1, 3]: 1.5 µM; rp/n (affinity enhancement per iminosugar) ([1]; calix[4]arene cluster): 70 and ~ 70

Q: Which Ki ([1]; monovalent reference, C6 chain, read-out: Ki) does the source give for `CCCc1cn(CCCCCCN2C[C@H](O)[C@@H](O)[C@H](O)[C@H]2CO)nn1` [Compound 3] here?
A: 322 µM

Q: Which Ki ([1]; monovalent inhitope, read-out: Ki (monovalent)) does the source give for `OC[C@@H]1[C@@H](O)[C@H](O)[C@H](O)c2nccn21` [mannoimidazole] here?
A: 0.11 µM

Q: Which rp/n [1] does the source give for `O=C1CN(Cc2cn(CCCCCCCCCN3C[C@H](O)[C@@H](O)[C@H](O)[C@H]3CO)nn2)C(=O)CN(Cc2cn(CCCCCCCCCN3C[C@H](O)[C@@H](O)[C@H](O)[C@H]3CO)nn2)C(=O)CN(Cc2cn(CCCCCCCCCN3C[C@H](O)[C@@H](O)[C@H](O)[C@H]3CO)nn2)C(=O)CN(Cc2cn(CCCCCCCCCN3C[C@H](O)[C@@H](O)[C@H](O)[C@H]3CO)nn2)C(=O)CN(Cc2cn(CCCCCCCCCN3C[C@H](O)[C@@H](O)[C@H](O)[C@H]3CO)nn2)C(=O)CN(Cc2cn(CCCCCCCCCN3C[C@H](O)[C@@H](O)[C@H](O)[C@H]3CO)nn2)C(=O)CN(Cc2cn(CCCCCCCCCN3C[C@H](O)[C@@H](O)[C@H](O)[C@H]3CO)nn2)C(=O)CN1Cc1cn(CCCCCCCCCN2C[C@H](O)[C@@H](O)[C@H](O)[C@H]2CO)nn1` [Compound 1b] here?
A: 3 and ~ 3

Q: With `OCc1cn(CCCN2C[C@H](O)[C@@H](O)[C@H](O)[C@H]2CO)nn1` [Compound 5] as the compound, how does the Ki [1, 3] read?
A: 400 µM

Q: What does the source list for `CC(C)(C)c1cc2c3c(c1)Cc1cc(C(C)(C)C)cc(c1OCc1cn(CCCCCCN4C[C@H](O)[C@@H](O)[C@H](O)[C@H]4CO)nn1)Cc1cc(C(C)(C)C)cc(c1OCc1cn(CCCCCCN4C[C@H](O)[C@@H](O)[C@H](O)[C@H]4CO)nn1)Cc1cc(C(C)(C)C)cc(c1OCc1cn(CCCCCCN4C[C@H](O)[C@@H](O)[C@H](O)[C@H]4CO)nn1)Cc1cc(C(C)(C)C)cc(c1OCc1ccc(cc1)CO3)Cc1cc(C(C)(C)C)cc(c1OCc1cn(CCCCCCN3C[C@H](O)[C@@H](O)[C@H](O)[C@H]3CO)nn1)Cc1cc(C(C)(C)C)cc(c1OCc1cn(CCCCCCN3C[C@H](O)[C@@H](O)[C@H](O)[C@H]3CO)nn1)Cc1cc(C(C)(C)C)cc(c1OCc1cn(CCCCCCN3C[C@H](O)[C@@H](O)[C@H](O)[C@H]3CO)nn1)C2` [Compound 7a]?
A: inhibition mode [2]: competitive inhibitors; Ki ([2]; means ± SD, triplicate): 7.7 ± 0.7 µM; rp/n (relative inhibition potency per DNJ unit) ([2]; rp/number of DNJ units): 7
